From patent US10597388B2, “Pyridazinone herbicides” (FMC CORPORATION, priority 2014, dated 2020)

Legend:
Assay type in all cases: in vivo
[1] = test system: barnyardgrass (Echinochloa crus-galli); test: Test A greenhouse herbicide test, pre- and postemergence
Outline: (§1)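 Seeds sown in loam–sand blend got a preemergence directed soil spray of compound in non-phytotoxic solvent with surfactant. Postemergence treatment was given at 2–10 cm, one- to two-leaf stage. After ~10 d in greenhouse, injury was rated visually vs untreated controls, 0 (no effect) to 100 (complete control).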

corn (Zea mays) = test: as above; details: Postemergence; for Corn plant response rating: 0 to 100 scale, 0 is no effect, 100 is complete control
Outline: as §1

[2] = test system: ryegrass, Italian (Italian ryegrass, Lolium multiflorum); test: as above
Outline: as §1

[3] = test system: ducksalad (Heteranthera limosa); test: Test B flooded paddy test; details: 250 g ai/ha, Flood; visual rating on scale of 0 to 100 where 0 is no effect and 100 is complete control; 13 to 15 d after treatment
Outline: (§2)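 Plants at the 2-leaf stage were flooded to 3 cm above soil, and test compounds were applied directly into the paddy water, which was held at that depth throughout. After 13 to 15 d in a greenhouse, injury was rated visually against untreated controls on a 0–100 scale (0 no effect, 100 complete control).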

[4] = test system: barnyardgrass (Echinochloa crus-galli); test: Test B flooded paddy test; details: 250 g ai/ha, Flood; visual rating on scale of 0 to 100 where 0 is no effect and 100 is complete control; 13 to 15 d after treatment
Outline: as §2

rice (Oryza sativa) = test: Test B flooded paddy test; details: 250 g ai/ha, Flood; visual rating on scale of 0 to 100 where 0 is no effect and 100 is complete control; 13 to 15 d after treatment
Outline: as §2

[5] = test system: sedge, umbrella (small-flower umbrella sedge, Cyperus difformis); test: Test B flooded paddy test; details: 250 g ai/ha, Flood; visual rating on scale of 0 to 100 where 0 is no effect and 100 is complete control; 13 to 15 d after treatment
Outline: as §2

[6] = test system: blackgrass (Alopecurus myosuroides); test: Test A greenhouse herbicide test, postemergence; details: for Blackgrass plant response rating: 0 to 100 scale, 0 is no effect, 100 is complete control
Outline: (§3)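 Plants grown in loam soil/sand blend pots were treated postemergence at 2 to 10 cm height, one- to two-leaf stage, with formulated test chemicals. After approximately 10 d in a greenhouse, injury was rated visually against untreated controls on a 0 to 100 scale (0 no effect, 100 complete control).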

[7] = test system: galium (catchweed bedstraw, Galium aparine); test: Test A greenhouse herbicide test, postemergence; details: for Galium plant response rating: 0 to 100 scale, 0 is no effect, 100 is complete control
Outline: as §3

[8] = test system: oat, wild (wild oat, Avena fatua); test: Test C greenhouse herbicide test, postemergence
Outline: (§4)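 Test chemicals were applied postemergence to greenhouse plants at the 1- to 4-leaf stage (2–18 cm tall) growing in peat/vermiculite medium. After 13–15 d, injury was rated visually against untreated controls on a 0–100 scale (0 = no effect, 100 = complete control).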

kochia (Kochia scoparia) = test: Test C greenhouse herbicide test, postemergence
Outline: as §4

[9] = test system: chickweed (common chickweed, Stellaria media); test: Test C greenhouse herbicide test, postemergence
Outline: as §4

[10] = Postemergence, 125 g ai/ha, 0 to 100 scale where 0 is no effect and 100 is complete control
[11] = Postemergence, 500 g ai/ha, 0 to 100 scale, 0 is no effect, 100 is complete control
[12] = Preemergence, 125 g ai/ha, 0 to 100 scale where 0 is no effect and 100 is complete control
[13] = Preemergence, 500 g ai/ha, 0 to 100 scale, 0 no effect, 100 complete control
[14] = 125 g ai/ha, 0 to 100 scale where 0 is no effect and 100 is complete control
[15] = Preemergence, 500 g ai/ha, 0 to 100 scale where 0 is no effect and 100 is complete control
[16] = Postemergence, 31 g ai/ha, 0 to 100 scale (0 no effect, 100 complete control)
[17] = Postemergence, 125 g ai/ha, scale 0 to 100, 0 is no effect, 100 is complete control
[18] = Postemergence, 250 g ai/ha, scale 0 to 100, 0 no effect, 100 complete control, 13 to 15 d
[19] = postemergence, 62 g ai/ha, scale 0 to 100, 0 no effect, 100 complete control
[20] = 500 g ai/ha, visual rating after approx. 10 d, 0 to 100 scale (0 no effect, 100 complete control)
[21] = Postemergence, 500 g ai/ha, visual rating after approx. 10 d, 0 to 100 scale (0 no effect, 100 complete control)
[22] = Postemergence, 31 g ai/ha, scale 0 to 100 (0 no effect, 100 complete control)

Cc1nn(C)c(=O)c(-c2ccc(Br)c3ccccc23)c1O [Compound 75]
Plant response rating, Barnyardgrass [1, 10]: 0
Barnyardgrass plant response rating [1, 11]: 60
Barnyardgrass plant response rating [1, 12]: 40
Plant response rating, Barnyardgrass [1, 13]: 80
Plant response rating, Corn (corn (Zea mays); [14]): 0
Corn plant response rating (corn (Zea mays); 500 g ai/ha): 20
Plant response rating, Ryegrass, Italian [2, 10]: 90
Ryegrass, Italian plant response rating [2, 11]: 100
Ryegrass, Italian plant response rating [2, 12]: 100
Plant response rating, Ryegrass, Italian [2, 15]: 100
Plant response rating, Ducksalad [3]: 0
Plant response rating, Barnyardgrass [4]: 0
Plant response rating, Rice (rice (Oryza sativa)): 15
Plant response rating, Sedge, Umbrella [5]: 0
Plant response rating, Blackgrass [6, 14]: 50
Blackgrass plant response rating ([6]; 500 g ai/ha): 70
Plant response rating, Galium [7, 14]: 90
Galium plant response rating ([7]; 500 g ai/ha): 100
Oat, Wild plant response rating [8, 16]: 40
Plant response rating, Oat, Wild [8, 17]: 40
Plant response rating, Oat, Wild [8, 18]: 35
Oat, Wild plant response rating [8, 19]: 35
Kochia plant response rating (kochia (Kochia scoparia); [16]): 90
Plant response rating, Kochia (kochia (Kochia scoparia); [17]): 95
Plant response rating, Kochia (kochia (Kochia scoparia); [18]): 95
Kochia plant response rating (kochia (Kochia scoparia); [19]): 85
Chickweed plant response rating [9, 16]: 95
Plant response rating, Chickweed [9, 17]: 95
Plant response rating, Chickweed [9, 18]: 95
Chickweed plant response rating [9, 19]: 90

Cc1ccc2sc(Br)c(-c3c(O)c(C)nn(C)c3=O)c2c1 [Compound 79]
Plant response rating, Barnyardgrass [1, 10]: 50
Barnyardgrass plant response rating [1, 11]: 80
Barnyardgrass plant response rating [1, 12]: 50
Plant response rating, Barnyardgrass [1, 13]: 70
Plant response rating, Corn (corn (Zea mays); [14]): 0
Corn plant response rating (corn (Zea mays); 500 g ai/ha): 0
Plant response rating, Ryegrass, Italian [2, 10]: 80
Ryegrass, Italian plant response rating [2, 11]: 90
Ryegrass, Italian plant response rating [2, 12]: 80
Plant response rating, Ryegrass, Italian [2, 15]: 100
Plant response rating, Ducksalad [3]: 0
Plant response rating, Barnyardgrass [4]: 0
Plant response rating, Rice (rice (Oryza sativa)): 0
Plant response rating, Sedge, Umbrella [5]: 0
Plant response rating, Blackgrass [6, 14]: 70
Blackgrass plant response rating ([6]; 500 g ai/ha): 80
Plant response rating, Galium [7, 14]: 90
Galium plant response rating ([7]; 500 g ai/ha): 90
Oat, Wild plant response rating [8, 16]: 50
Plant response rating, Oat, Wild [8, 17]: 85
Plant response rating, Oat, Wild [8, 18]: 90
Oat, Wild plant response rating [8, 19]: 60
Kochia plant response rating (kochia (Kochia scoparia); [16]): 50
Plant response rating, Kochia (kochia (Kochia scoparia); [17]): 90
Plant response rating, Kochia (kochia (Kochia scoparia); [18]): 90
Kochia plant response rating (kochia (Kochia scoparia); [19]): 90
Chickweed plant response rating [9, 16]: 90
Plant response rating, Chickweed [9, 17]: 90
Plant response rating, Chickweed [9, 18]: 90
Chickweed plant response rating [9, 19]: 90

Cc1sc2ccccc2c1-c1c(O)c(Cl)nn(C)c1=O [Compound 89]
Plant response rating, Barnyardgrass [1, 10]: 40
Barnyardgrass plant response rating [1, 11]: 80
Barnyardgrass plant response rating [1, 12]: 50
Plant response rating, Barnyardgrass [1, 15]: 60
Plant response rating, Corn (corn (Zea mays); [14]): 0
Corn plant response rating (corn (Zea mays); 500 g ai/ha): 0
Plant response rating, Ryegrass, Italian [2, 10]: 80
Ryegrass, Italian plant response rating [2, 11]: 90
Ryegrass, Italian plant response rating [2, 12]: 80
Plant response rating, Ryegrass, Italian [2, 15]: 90
Plant response rating, Ducksalad [3]: 65
Plant response rating, Barnyardgrass [4]: 0
Plant response rating, Rice (rice (Oryza sativa)): 0
Plant response rating, Sedge, Umbrella [5]: 40
Plant response rating, Blackgrass [6, 14]: 30
Blackgrass plant response rating ([6]; 500 g ai/ha): 60
Plant response rating, Galium [7, 14]: 90
Galium plant response rating ([7]; 500 g ai/ha): 90
Plant response rating, Oat, Wild [8, 17]: 30
Plant response rating, Oat, Wild [8, 18]: 40
Oat, Wild plant response rating [8, 19]: 10
Plant response rating, Kochia (kochia (Kochia scoparia); [17]): 90
Plant response rating, Kochia (kochia (Kochia scoparia); [18]): 100
Kochia plant response rating (kochia (Kochia scoparia); [19]): 90
Chickweed plant response rating [9, 16]: 90
Plant response rating, Chickweed [9, 17]: 100
Plant response rating, Chickweed [9, 18]: 100
Chickweed plant response rating [9, 19]: 95

CC(=O)Oc1c(C)nn(C)c(=O)c1-c1c(C)cc(C)c2ccccc12 [Compound 99]
Plant response rating, Barnyardgrass [1, 10]: 20
Barnyardgrass plant response rating [1, 11]: 90
Barnyardgrass plant response rating [1, 12]: 60
Plant response rating, Barnyardgrass [1, 15]: 90
Plant response rating, Corn (corn (Zea mays); [14]): 20
Plant response rating, Corn (corn (Zea mays); [20]): 40
Plant response rating, Ryegrass, Italian [2, 10]: 100
Plant response rating, Ryegrass, Italian [2, 21]: 100
Ryegrass, Italian plant response rating [2, 12]: 100
Plant response rating, Ryegrass, Italian [2, 15]: 100
Plant response rating, Ducksalad [3]: 0
Plant response rating, Barnyardgrass [4]: 0
Plant response rating, Rice (rice (Oryza sativa)): 0
Plant response rating, Sedge, Umbrella [5]: 0
Plant response rating, Blackgrass [6, 14]: 60
Blackgrass plant response rating ([6]; 500 g ai/ha): 80
Plant response rating, Galium [7, 14]: 100
Plant response rating, Galium [7, 20]: 100
Plant response rating, Oat, Wild [8, 17]: 90
Plant response rating, Oat, Wild [8, 18]: 95
Oat, Wild plant response rating [8, 19]: 70
Plant response rating, Kochia (kochia (Kochia scoparia); [17]): 90
Plant response rating, Kochia (kochia (Kochia scoparia); [18]): 95
Kochia plant response rating (kochia (Kochia scoparia); [19]): 85
Chickweed plant response rating [9, 16]: 90
Plant response rating, Chickweed [9, 17]: 90
Plant response rating, Chickweed [9, 18]: 90
Chickweed plant response rating [9, 19]: 90

Cc1ccc2ccccc2c1-c1c(O)c(C(F)(F)F)nn(C)c1=O [Compound 102]
Plant response rating, Barnyardgrass [1, 10]: 40
Barnyardgrass plant response rating [1, 11]: 90
Barnyardgrass plant response rating [1, 12]: 40
Plant response rating, Barnyardgrass [1, 15]: 60
Plant response rating, Corn (corn (Zea mays); [14]): 20
Plant response rating, Corn (corn (Zea mays); [20]): 20
Plant response rating, Ryegrass, Italian [2, 10]: 20
Plant response rating, Ryegrass, Italian [2, 21]: 80
Ryegrass, Italian plant response rating [2, 12]: 60
Plant response rating, Ryegrass, Italian [2, 15]: 60
Plant response rating, Ducksalad [3]: 0
Plant response rating, Barnyardgrass [4]: 0
Plant response rating, Rice (rice (Oryza sativa)): 0
Plant response rating, Sedge, Umbrella [5]: 50
Plant response rating, Blackgrass [6, 14]: 20
Blackgrass plant response rating ([6]; 500 g ai/ha): 70
Plant response rating, Galium [7, 14]: 100
Plant response rating, Galium [7, 20]: 100
Plant response rating, Oat, Wild [8, 22]: 5
Plant response rating, Oat, Wild [8, 17]: 10
Plant response rating, Oat, Wild [8, 18]: 25
Plant response rating, Kochia (kochia (Kochia scoparia); [22]): 0
Plant response rating, Kochia (kochia (Kochia scoparia); [17]): 20
Plant response rating, Kochia (kochia (Kochia scoparia); [18]): 50
Plant response rating, Chickweed [9, 22]: 95
Plant response rating, Chickweed [9, 17]: 95
Plant response rating, Chickweed [9, 18]: 98
Chickweed plant response rating [9, 19]: 95

CCC(=O)Oc1c(C)nn(C)c(=O)c1-c1ccc(F)c2ccccc12 [Compound 113]
Plant response rating, Barnyardgrass [1, 10]: 40
Plant response rating, Barnyardgrass [1, 21]: 90
Barnyardgrass plant response rating [1, 12]: 70
Plant response rating, Barnyardgrass [1, 15]: 100
Plant response rating, Corn (corn (Zea mays); [14]): 20
Plant response rating, Corn (corn (Zea mays); [20]): 70
Plant response rating, Ryegrass, Italian [2, 10]: 100
Plant response rating, Ryegrass, Italian [2, 21]: 100
Ryegrass, Italian plant response rating [2, 12]: 100
Plant response rating, Ryegrass, Italian [2, 15]: 100
Plant response rating, Ducksalad [3]: 0
Plant response rating, Barnyardgrass [4]: 0
Plant response rating, Rice (rice (Oryza sativa)): 0
Plant response rating, Sedge, Umbrella [5]: 0
Plant response rating, Blackgrass [6, 14]: 90
Plant response rating, Blackgrass [6, 20]: 90
Plant response rating, Galium [7, 14]: 100
Plant response rating, Galium [7, 20]: 100
Plant response rating, Oat, Wild [8, 22]: 90
Plant response rating, Oat, Wild [8, 17]: 90
Plant response rating, Oat, Wild [8, 18]: 90
Plant response rating, Kochia (kochia (Kochia scoparia); [22]): 95
Plant response rating, Kochia (kochia (Kochia scoparia); [17]): 95
Plant response rating, Kochia (kochia (Kochia scoparia); [18]): 100
Plant response rating, Chickweed [9, 22]: 90
Plant response rating, Chickweed [9, 17]: 98
Plant response rating, Chickweed [9, 18]: 100
Chickweed plant response rating [9, 19]: 90
